Measured values as given in US9102622B2 (University of Connecticut, priority 2006, dated 2015).
Like-named read-outs stand apart in the source and are kept apart here.

Target: fatty acid amide hydrolase (FAAH) (Rattus norvegicus (Rat), UniProt P97612)
Test: FAAH enzyme assay: inhibition of anandamide (AEA) hydrolysis, arachidonic acid quantified by HPLC
Format: biochemical
Settings: for inhibition at 100 µM: read-out: % Inhibition (Concentration)
Experimental: The resulting supernatant is injected onto the HPLC.

[1] = one-point assay, inhibitor 100 μM, partially purified rat brain FAAH, 15 min
[2] = eight-point assay, anandamide hydrolysis by FAAH, read-out: IC50
[3] = eight-point assay, calculated with Prizm software, read-out: Ki

Sequence of fatty acid amide hydrolase (FAAH) (P97612 whole entry): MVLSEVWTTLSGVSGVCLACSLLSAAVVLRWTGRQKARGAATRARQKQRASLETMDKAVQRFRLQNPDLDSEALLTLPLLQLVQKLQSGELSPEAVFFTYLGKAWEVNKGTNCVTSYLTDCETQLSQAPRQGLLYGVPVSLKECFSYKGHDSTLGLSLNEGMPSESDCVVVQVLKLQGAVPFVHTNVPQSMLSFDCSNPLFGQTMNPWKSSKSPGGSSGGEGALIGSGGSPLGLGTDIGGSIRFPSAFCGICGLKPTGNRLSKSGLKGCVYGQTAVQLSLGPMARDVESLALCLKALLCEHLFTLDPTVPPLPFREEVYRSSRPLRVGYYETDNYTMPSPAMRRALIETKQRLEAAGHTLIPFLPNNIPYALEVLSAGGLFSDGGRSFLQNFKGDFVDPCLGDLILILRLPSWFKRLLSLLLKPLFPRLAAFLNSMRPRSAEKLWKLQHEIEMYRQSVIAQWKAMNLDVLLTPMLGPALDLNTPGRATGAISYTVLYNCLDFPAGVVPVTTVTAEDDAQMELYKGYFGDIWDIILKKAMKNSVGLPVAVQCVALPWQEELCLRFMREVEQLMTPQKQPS

Row | inhibition at 100 µM [1] [%] | IC50 [2] [nM] | Ki [3] [nM] | SMILES | further results
1 | 81 | – | – | CCCCCCc1ccc(O)c(-c2ccc(C(=O)C(F)(F)F)cc2)c1OC [Compound 40.3, 2,2,2-Trifluoro-1-(3′-hexyl-6′-hydroxy-2′-methoxybiphenyl-4-yl)ethanone] | –
2 | 25 | – | – | O=C(Nc1ccc(Br)cc1)OC1CCCCC1 [Compound 48.1, (4-Bromophenyl)carbamic acid cyclohexyl ester] | –
3 | 84 | 4000 | 1200 | CCOC(=O)Nc1ccc(Br)cc1 [Compound 48.2] | –
4 | 36 | – | – | O=C(Nc1ccc(Br)cc1)OCc1ccccc1 [Compound 48.3, (4-Bromophenyl)carbamic acid benzyl ester] | –
5 | 56 | – | – | O=C(Nc1ccc(Br)cc1)OC12CC3CC(CC(C3)C1)C2 [Compound 48.4] | –
6 | 89 | – | – | O=C(NCc1ccc(Br)cc1)OCc1ccccc1 [Compound 57.2, (4-Bromobenzyl)carbamic acid benzyl ester] | –
7 | 96 | 120 | 8 | Cc1nnc(C(=O)CCCCCCOc2ccc(OCc3ccccc3)cc2)o1 [Compound 65.2, 7-(4-Benzyloxy-phenoxy)-1-(5-methyl-1,3,4-oxadiazol-2-yl)-heptan-1-one] | –
8 | 94 | 25 | 2 | O=C(CCCCCCOc1ccccc1)c1nnc(COCc2ccccc2)o1 [Compound 73.1, 7-(Phenoxy)-1-(5-benzyloxymethyl-1,3,4-oxadiazol-2-yl)-heptan-1-one] | –

Continued, compound first:

Row | SMILES | inhibition at 100 µM [1] [%] | IC50 [2] [nM] | Ki [3] [nM] | further results
9 | O=S(=O)(F)CCCc1ccccc1 [Compound 4.1, 3-Phenyl-propanesulfonyl fluoride, reference compound] | 19 | – | – | –
10 | O=S(=O)(F)CCCCCCCc1ccccc1 [Compound 4.2, 7-Phenyl-heptanesulfonyl fluoride, reference compound] | 31 | – | – | –
11 | O=S(=O)(F)CCCCCCCCc1ccccc1 [Compound 4.3, 8-Phenyl-octanesulfonyl fluoride, reference compound] | – | – | – | % Inhibition (Concentration) (one-point assay, concentration not given): 24%
12 | O=S(=O)(Cl)CCCCCCCc1cccc(OCc2ccccc2)c1 [Compound 12.2, 7-(3-Benzyloxy-phenyl)-heptanesulfonyl chloride] | 97 | 12000 | 2900 | –
13 | O=S(=O)(Cl)CCCCCCCc1ccccc1OCc1ccccc1 [Compound 12.3, 7-(2-Benzyloxy-phenyl)-heptanesulfonyl chloride] | 97 | 1750 | 410 | –
14 | O=S(=O)(Cl)CCCCCc1ccc(OCc2ccccc2)cc1 [Compound 12.4, 5-(4-Benzyloxy-phenyl)-pentanesulfonyl chloride] | 95 | – | – | –
15 | O=S(=O)(F)CCCCCCCc1cccc(OCc2ccccc2)c1 [Compound 13.2, 7-(3-Benzyloxy-phenyl)-heptanesulfonyl fluoride] | 97 | – | – | –
16 | O=S(=O)(F)CCCCCCCc1ccccc1OCc1ccccc1 [Compound 13.3, 7-(2-Benzyloxy-phenyl)-heptanesulfonyl fluoride] | 100 | – | – | IC50: 193 nM; Ki: 46 nM
17 | O=S(=O)(F)CCCCCCCc1cccc(O)c1 [Compound 14.2, 7-(3-Hydroxy-phenyl)-heptanesulfonyl fluoride] | 99 | 113 | 26 | –
18 | O=S(=O)(F)CCCCCCCc1ccccc1O [Compound 14.3, 7-(2-Hydroxy-phenyl)-heptanesulfonyl fluoride] | 100 | 54 | 13 | –
19 | O=C(CCCOc1cccc(OCc2ccccc2)c1)C(F)(F)F [Compound 23.5, 1,1,1-Trifluoro-5-[3-(Benzyloxy)phenoxy]-2-pentanone] | 93 | 6900 | 770 | –
20 | O=C(CCCCOc1cccc(OCc2ccccc2)c1)C(F)(F)F [Compound 23.6, 1,1,1-Trifluoro-6-[3-(Benzyloxy)phenoxy]-2-hexanone] | 97 | 6600 | 470 | –
21 | O=C(CCCCCOc1cccc(OCc2ccccc2)c1)C(F)(F)F [Compound 23.7, 1,1,1-Trifluoro-7-[3-(Benzyloxy)phenoxy]-2-heptanone] | 96 | 470 | 52 | –
22 | O=C(CCCCOc1ccccc1OCc1ccccc1)C(F)(F)F [Compound 23.9, 1,1,1-Trifluoro-6-[2-(Benzyloxy)phenoxy]-2-hexanone] | 97 | 660 | 46 | –
23 | O=C(CCCOc1ccccc1)C(F)(F)F [Compound 23.11, 1,1,1-Trifluoro-5-phenoxy-2-pentanone] | 79 | 11200 | 1200 | –
24 | O=C(CCCOc1ccc(O)cc1)C(F)(F)F [Compound 24.1, 1,1,1-Trifluoro-5-[4-(hydroxy)phenoxy]-2-pentanone] | 68 | 14900 | 1700 | –
25 | O=C(CCCCCOc1ccc(O)cc1)C(F)(F)F [Compound 24.3, 1,1,1-Trifluoro-7-[4-(hydroxy)phenoxy]-2-heptanone] | 86 | 11400 | 800 | –
26 | Oc1cccc(OCCCC(O)(O)C(F)(F)F)c1 [Compound 24.5, 1,1,1-Trifluoro-2,2-dihydroxy-5-[3-(hydroxy)phenoxy]pentane] | 79 | 22800 | 2500 | –
27 | O=C(CCCCOc1cccc(O)c1)C(F)(F)F [Compound 24.6, 1,1,1-Trifluoro-6-[3-(hydroxy)phenoxy]-2-hexanone] | 85 | 29400 | 2070 | –

Row | SMILES | inhibition at 100 µM [1] [%] | IC50 [2] [nM] | Ki [3] [nM] | further results
28 | O=C(CCCCCOc1cccc(O)c1)C(F)(F)F [Compound 24.7, 1,1,1-Trifluoro-7-[3-(hydroxy)phenoxy]-2-heptanone] | – | 5020 | 440 | –
29 | O=C(CCCOc1ccccc1O)C(F)(F)F [Compound 24.8, 1,1,1-Trifluoro-5-[2-(hydroxy)phenoxy]-2-pentanone] | 43 | 138000 | 15300 | –
30 | O=C(CCCCCOc1ccccc1O)C(F)(F)F [Compound 24.10, 1,1,1-Trifluoro-7-[2-(hydroxy)phenoxy]-2-heptanone] | 82 | 26200 | 1800 | –
31 | O=C(CCCc1ccccc1)C(F)(F)F [Compound 27.1, 1,1,1-Trifluoro-5-phenyl-2-pentanone] | 46 | 69400 | 4600 | –
32 | O=C(CCCCc1ccccc1)C(F)(F)F [Compound 27.2, 1,1,1-Trifluoro-6-phenyl-2-hexanone] | 53 | 18800 | 2100 | –
33 | O=C(CCCCCc1ccccc1)C(F)(F)F [Compound 27.3, 1,1,1-Trifluoro-7-phenyl-2-heptanone, reference compound] | 83 | 11100 | 1230 | –
34 | COc1ccc(CCCCC(=O)C(F)(F)F)cc1 [Compound 27.4, 1,1,1-Trifluoro-6-(4-methoxy-phenyl)-2-hexanone] | 82 | 6900 | 600 | –
35 | O=C(c1cccc(-c2cccc(OCc3ccccc3)c2)c1)C(F)(F)F [Compound 30] | 33 | – | – | –
36 | O=C(Cc1cccc(-c2cccc(OCc3ccccc3)c2)c1)C(F)(F)F [Compound 35, 1,1,1-Trifluoro-3-(3-benzyloxy-biphenyl-3-yl)-2-propanone] | 54 | – | – | –
37 | CCCCCc1cc(OC)c(-c2ccc(C(=O)C(F)(F)F)cc2)c(OC)c1 [Compound 39.2, 1-(2′,6′-Dimethoxy-4′-pentylbiphenyl-4-yl)-2,2,2-trifluoroethanone] | 57 | – | – | –
38 | CCCCCCC(C)(C)c1cc(O)c(-c2ccc(C(=O)C(F)(F)F)cc2)c(O)c1 [Compound 40.1, 1-(2′,6′-dihydroxy-4′-(2-methyloctan-2-yl)biphenyl-4-yl)-2,2,2-trifluoroethanone] | 36 | – | – | –
39 | O=C(Nc1ccc(I)cc1)Oc1ccccc1 [Compound 48.6, (4-Iodophenyl)carbamic acid phenyl ester] | 84 | – | – | –
40 | CCCCCCC(C)(C)c1cc(OCOC)c(-c2ccc(NC(=O)OCC)cc2)c(OCOC)c1 [Compound 52.2, 2′,6′-Bis(methoxymethoxy)-4′-(1,1-dimethylheptyl)[1,1′-biphenyl]-4-yl carbamic acid ethyl ester] | 64 | – | – | –
41 | CCCCCCC(C)(C)c1cc(OCOCC)c(-c2ccc(NC(=O)OCc3ccccc3)cc2)c(OCOCC)c1 [Compound 52.3, 2′,6′-Bis(ethoxymethoxy)-4′-(1,1-dimethylheptyl)[1,1′-biphenyl]-4-yl carbamic acid benzyl ester] | 41 | – | – | –
42 | CCCCCCC(C)(C)c1cc(O)c(-c2ccc(NC(=O)OC3CCCCC3)cc2)c(O)c1 [Compound 53.1, 2′,6′-Dihydroxy-4′-(2-methyloctan-2-yl)biphenyl-4-yl carbamic acid cyclohexyl ester] | 23 | – | – | –
43 | CCCCCCC(C)(C)c1cc(O)c(-c2ccc(NC(=O)OCC)cc2)c(O)c1 [Compound 53.2, 2′,6′-Dihydroxy-4′-(1,1-dimethylheptyl)[1,1′-biphenyl]-4-yl carbamic acid ethyl ester] | 15 | – | – | –
44 | CCCCCCC(C)(C)c1cc(O)c(-c2ccc(NC(=O)OCc3ccccc3)cc2)c(O)c1 [Compound 53.3, 2′,6′-Dihydroxy-4′-(2-methyloctane-2-yl)biphenyl-4-yl carbamic acid benzyl ester] | 89 | – | – | –
45 | Cc1nnc(C(=O)CCCCCCOc2ccc(O)cc2)o1 [Compound 66, 7-(4-Hydroxy-phenoxy)-1-(5-methyl-1,3,4-oxadiazol-2-yl)-heptan-1-one] | – | 100 | 6 | inhibition at 100 µM: 97%
46 | O=C(CCCCCCOc1ccc(OCc2ccccc2)cc1)c1nnc(COCc2ccccc2)o1 [Compound 73.2, 7-(4-Benzyloxy-phenoxy)-1-(5-benzyloxymethyl-1,3,4-oxadiazol-2-yl)-heptan-1-one] | – | 21 | 2 | inhibition at 100 µM: 93%
